Experimental data: patent USRE43327E1, “Hydrophobic polyamine analogs and methods for their use” (Aminex Therapeutics, Inc., priority 2001, dated 2012)
Several values for one entry are separate records, joined by “and”; a condition that tells them apart may be missing. Equal entries are not always repeated.

Assays:
Type in all cases: cell-based
[1] = system: A375; test: Growth inhibition assay (MTS/PMS) with DFMO, A375; conditions: in the presence of DFMO (1-5 mM), 1 mM AG, 0.5 μM SPD, six days; repeat determinations; read-out: Cell Line EC50 A375
Procedure: (§1) Medias were obtained from Mediatech, Inc. (Herdon, Va.) and serums from Gibco BRL (Gaithersburg, Md.). 50 U/ml penicillin, 50 μg/ml streptomycin and 2 mM L-glutamine (all from Bio Whittaker, Walkersville, Md.) were included in all cultures. […] When cells were cultured with polyamines or ORI compounds, 1 mM aminoguanidine (AG; Sigma) was included to inhibit serum amine oxidase activity.

[2] = system: MDA-MB-231; test: Growth inhibition assay (MTS/PMS) with DFMO, MDA-MB-231; conditions: in the presence of DFMO (1-5 mM), 1 mM AG, 0.5 μM SPD, six days; repeat determinations; read-out: Cell Line EC50 MDA-MB-231
Procedure: as §1

[3] = system: PC-3; test: Growth inhibition assay (MTS/PMS) with DFMO, PC-3; conditions: in the presence of DFMO (1-5 mM), 1 mM AG, 0.5 μM SPD, six days; repeat determinations; read-out: Cell Line EC50 PC-3
Procedure: as §1

[4] = system: SK-OV-3; test: Growth inhibition assay (MTS/PMS) with DFMO, SK-OV-3; conditions: in the presence of DFMO (1-5 mM), 1 mM AG, 0.5 μM SPD, six days; repeat determinations; read-out: Cell Line EC50 SK-OV-3
Procedure: as §1

[5] = system: 4 cell lines (A375, MDA-MB-231, PC-3, SK-OV-3); test: Growth inhibition with DFMO, average over 4 cell lines; conditions: for EC50: Table 3, average over cell lines, with DFMO, read-out: AVG. EC50; for growth inhibition / EC50 with polyamine synthesis inhibitor, comparison in words: compared with lysine-spermine conjugates (ORI 1202, ORI 1426) or PAs lacking a hydrophobic domain
Procedure: Cells were plated in 96-well plates such that they would be in log growth for the duration of the assay. The day after plating, PAs were added to the cells, and growth, if any, permitted to continue for six days in the presence of 1 mM AG and 0.5 μM SPD to insure that any growth inhibition was not the result of depletion of external polyamines in the media. At the end of the six days, cell growth was measured by MTS/PMS dye assay (Cell Titer 96 Aqueous Non-Radioactive Cell Proliferation Assay; Promega, Madison, Wis.).

[6] = system: A375; test: Growth inhibition assay, PA alone, A375; conditions: PA alone (no DFMO), six days; repeat determinations; read-out: Cell Line IC50 A375
Procedure: as §1

[7] = system: MDA-MB-231; test: Growth inhibition assay, PA alone, MDA-MB-231; conditions: PA alone (no DFMO), six days; repeat determinations; read-out: Cell Line IC50 MDA-MB-231
Procedure: as §1

[8] = system: PC-3; test: Growth inhibition assay, PA alone, PC-3; conditions: PA alone (no DFMO), six days; repeat determinations; read-out: Cell Line IC50 PC-3
Procedure: as §1

[9] = system: SK-OV-3; test: Growth inhibition assay, PA alone, SK-OV-3; conditions: PA alone (no DFMO), six days; repeat determinations; read-out: Cell Line IC50 SK-OV-3
Procedure: as §1

Compound: CCCCCCCCCCCCCCCCC(=O)NCCCC[C@H](N)C(=O)NCCCNCCCCNCCCN [IA3]
- EC50 [1]: < 0.01 µM and 0.01 µM
- EC50 [2]: 0.032 µM and 0.018 µM
- EC50 [3]: 0.022 µM
- EC50 [4]: 0.097 µM and 0.167 µM
- EC50 [5]: 0.053 µM

Compound: CCCCCCCCCCCCCC(=O)NCCCC[C@H](N)C(=O)NCCCNCCCCNCCCN [IA5]
- EC50 [1]: 0.025 µM
- EC50 [2]: 0.208 µM
- EC50 [3]: 0.189 µM
- EC50 [4]: 4.6 µM
- EC50 [5]: 1.26 µM
- IC50 [6]: > 30 µM
- IC50 [7]: > 30 µM
- IC50 [8]: 9.87 µM
- IC50 [9]: 21.5 µM

Compound: CCCCCCCC(=O)NCCCC[C@H](N)C(=O)NCCCNCCCCNCCCN [IA7]
- EC50 [1]: 2.3 µM and 1.75 µM
- EC50 [2]: 1.12 µM
- EC50 [3]: 1.35 µM and 0.853 µM
- EC50 [4]: > 30 µM
- EC50 [5]: 6.23 µM
- IC50 [6]: > 30 µM
- IC50 [7]: > 30 µM
- IC50 [8]: > 30 µM
- IC50 [9]: > 30 µM

Compound: CC(=O)NCCCC[C@H](N)C(=O)NCCCNCCCCNCCCN [IA11]
- EC50 [1]: > 30 µM
- EC50 [2]: > 30 µM
- EC50 [3]: 2.3 µM
- EC50 [4]: > 30 µM
- growth inhibition / EC50 with polyamine synthesis inhibitor, comparison in words [5]: higher EC50
- IC50 [6]: > 30 µM
- IC50 [7]: > 30 µM
- IC50 [8]: > 30 µM
- IC50 [9]: > 30 µM

Compound: NCCCNCCCCNCCCNC(=O)[C@@H](N)CCCCNC(=O)CCCCCCCCC(=O)NCCCC[C@H](N)C(=O)NCCCNCCCCNCCCN [IA19]
- EC50 [1]: 0.214 µM
- EC50 [2]: > 30 µM
- EC50 [3]: > 30 µM
- EC50 [4]: > 30 µM
- growth inhibition / EC50 with polyamine synthesis inhibitor, comparison in words [5]: no improvement
- IC50 [6]: > 30 µM
- IC50 [7]: > 30 µM
- IC50 [8]: > 30 µM
- IC50 [9]: > 30 µM

Compound: NCCCNCCCCNCCCNC(=O)[C@@H](N)CCCCNC(=O)c1ccc(N)cc1 [IA28]
- EC50 [1]: 1.66 µM
- EC50 [2]: > 30 µM
- EC50 [3]: 0.982 µM
- EC50 [4]: > 30 µM
- IC50 [6]: > 30 µM
- IC50 [7]: > 30 µM
- IC50 [8]: > 30 µM
- IC50 [9]: > 30 µM

Compound: CC(C)CC(=O)NCCCC[C@@H](N)C(=O)NCCCNCCCCNCCCN [IB35]
- EC50 [1]: > 100 µM
- EC50 [2]: > 100 µM
- EC50 [3]: > 100 µM
- EC50 [4]: > 100 µM
- EC50 [5]: > 100 µM
- IC50 [6]: > 100 µM
- IC50 [7]: > 100 µM
- IC50 [8]: > 100 µM
- IC50 [9]: > 100 µM

Compound: CCCCCCCCCCCCCCCC(=O)NC(CCCCN)C(=O)NCCCNCCCCNCCCN (stereo not drawn) [ID4]
- EC50 [1]: 0.44 µM
- EC50 [2]: 0.636 µM
- EC50 [3]: 1.33 µM
- EC50 [4]: 2.64 µM
- EC50 [5]: 1.26 µM
- IC50 [6]: 17.9 µM
- IC50 [7]: 18.6 µM
- IC50 [8]: 18.7 µM
- IC50 [9]: 18.1 µM

Compound: CCCCCCCC(=O)NC(CCCCN)C(=O)NCCCNCCCCNCCCN (stereo not drawn) [ID7]
- EC50 [1]: 5.29 µM
- EC50 [2]: 8.25 µM
- EC50 [3]: 7.42 µM
- EC50 [4]: 17.2 µM
- EC50 [5]: 9.54 µM
- IC50 [6]: > 30 µM
- IC50 [7]: > 30 µM
- IC50 [8]: > 30 µM
- IC50 [9]: > 30 µM

Compound: NCCCC[C@H](NC(=O)c1ccccc1)C(=O)NCCCNCCCCNCCCN [ID24]
- EC50 [1]: 5.98 µM
- EC50 [2]: 4.75 µM
- EC50 [3]: 3.3 µM
- EC50 [4]: > 30 µM
- IC50 [6]: > 30 µM
- IC50 [7]: > 30 µM
- IC50 [8]: > 30 µM
- IC50 [9]: > 30 µM

Compound: NCCCCC(NC(=O)c1ccco1)C(=O)NCCCNCCCCNCCCN (stereo not drawn) [ID25]
- EC50 [1]: 8.78 µM
- EC50 [2]: 8.76 µM
- EC50 [3]: 5.27 µM
- EC50 [4]: > 30 µM
- IC50 [6]: > 30 µM
- IC50 [7]: > 30 µM
- IC50 [8]: > 30 µM
- IC50 [9]: > 30 µM

Compound: CCS(=O)(=O)NCCCC[C@H](N)C(=O)NCCCNCCCCNCCCN [IIA2]
- EC50 [1]: > 30 µM
- EC50 [3]: > 30 µM
- EC50 [4]: > 30 µM
- IC50 [6]: > 30 µM
- IC50 [8]: > 30 µM
- IC50 [9]: > 30 µM

Compound: NCCCNCCCCNCCCNC(=O)[C@@H](N)CCCCNS(=O)(=O)c1ccccc1 [IIA16]
- EC50 [1]: 1.21 µM
- EC50 [2]: 2.57 µM
- EC50 [3]: 0.72 µM
- EC50 [4]: > 30 µM
- IC50 [6]: > 30 µM
- IC50 [7]: > 30 µM
- IC50 [8]: > 30 µM
- IC50 [9]: > 30 µM

Compound: Cc1cc(C)c(S(=O)(=O)NCCCC[C@H](N)C(=O)NCCCNCCCCNCCCN)c(C)c1 [IIA17]
- EC50 [1]: 0.629 µM
- EC50 [2]: < 1 µM
- EC50 [3]: 0.18 µM
- EC50 [4]: 2.59 µM
- IC50 [6]: > 30 µM
- IC50 [7]: 605 µM
- IC50 [8]: > 30 µM
- IC50 [9]: > 30 µM
